Here are results for 18 compounds from patent publication US20150005288A1, “SUBSTITUTED PHENYLIMIDAZOPYRAZOLES AND USE THEREOF” (Bayer Intellectual Property GmbH, priority 2012, published 2015).

Assay [1] deals with T1, intracellular domain of human Tie2 (GST fusion protein) (Homo sapiens, UniProt Q02763).
T1 construct: intracellular domain of human Tie2 (amino acids 776-1124); made in house; host or cells: Baculovirus-infected insect cells (Hi5)
Briefly: Tie2 kinase assay (Tie2-TR-FRET). To be noted: ATP concentration 1 mM, in some cases means of several independent determinations. The class given is biochemical. A digest of the protocol:
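High ATP (1 mM final) with 1 μM biotin-peptide substrate; reaction 60 min at 22 °C after 15 min compound pre-binding to GST-Tie2 (aa 776-1124) in HEPES pH 7 with Mg/Mn. Phosphopeptide detected by TR-FRET emission ratio 665/620 nm. IC50 from 4-parameter fit over 20 μM to 0.073 nM, duplicates.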
A general note: TR-FRET usually uses a lanthanide donor and a delayed reading to cut background.

In assay [2] the target is T2, endogenous Tie2 receptor (Homo sapiens, UniProt Q02763).
T2 construct: the endogenous Tie2 receptor; host or cells: HUVEC (human umbilical vein endothelial cells)
T2 sequence (Q02763 23-1124): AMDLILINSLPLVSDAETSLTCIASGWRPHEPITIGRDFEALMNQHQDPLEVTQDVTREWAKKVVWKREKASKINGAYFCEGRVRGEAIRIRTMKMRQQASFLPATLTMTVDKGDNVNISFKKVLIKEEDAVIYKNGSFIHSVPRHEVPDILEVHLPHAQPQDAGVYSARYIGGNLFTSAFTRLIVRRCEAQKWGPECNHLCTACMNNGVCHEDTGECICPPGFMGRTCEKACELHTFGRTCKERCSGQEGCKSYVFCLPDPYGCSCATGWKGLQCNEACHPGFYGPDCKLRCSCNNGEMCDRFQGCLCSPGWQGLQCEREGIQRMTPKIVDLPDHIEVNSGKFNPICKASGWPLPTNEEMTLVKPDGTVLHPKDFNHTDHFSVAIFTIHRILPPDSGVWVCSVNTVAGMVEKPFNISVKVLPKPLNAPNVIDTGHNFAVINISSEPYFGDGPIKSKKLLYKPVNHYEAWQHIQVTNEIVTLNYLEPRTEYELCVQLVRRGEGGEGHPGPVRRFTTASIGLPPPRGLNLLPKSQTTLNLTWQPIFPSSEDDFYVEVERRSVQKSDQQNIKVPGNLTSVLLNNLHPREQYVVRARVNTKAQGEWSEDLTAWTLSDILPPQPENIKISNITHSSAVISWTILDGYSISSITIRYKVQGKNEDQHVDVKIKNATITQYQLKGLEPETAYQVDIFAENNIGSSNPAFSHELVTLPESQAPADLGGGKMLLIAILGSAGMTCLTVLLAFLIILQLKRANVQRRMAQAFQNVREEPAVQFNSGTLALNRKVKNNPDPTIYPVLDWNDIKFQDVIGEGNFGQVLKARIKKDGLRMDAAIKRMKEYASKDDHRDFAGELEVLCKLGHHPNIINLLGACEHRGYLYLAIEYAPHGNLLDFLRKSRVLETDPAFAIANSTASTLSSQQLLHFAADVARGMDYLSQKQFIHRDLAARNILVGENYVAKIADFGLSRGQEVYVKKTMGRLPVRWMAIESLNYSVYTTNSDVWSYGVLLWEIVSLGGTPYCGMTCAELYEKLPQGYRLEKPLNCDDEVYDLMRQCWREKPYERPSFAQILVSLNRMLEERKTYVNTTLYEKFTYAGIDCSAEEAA
Briefly: Tie2-pTyr-ELISA: autophosphorylation of endogenous Tie2 receptor in HUVEC. It is filed as cell-based. To be noted: autophosphorylation elevated by sodium orthovanadate (4 mM), Tie2/phosphotyrosine sandwich ELISA, from 2-7 independent measurements. How it is done:
The cellular activity of the compounds according to the invention as Tie2 kinase inhibitors was determined in human endothelial cells (HUVEC) by measuring the inhibition of the autophosphorylation, elevated by treatment with sodium orthovanadate, of the endogenous Tie2 receptor by means of a Tie2/phosphotyrosine sandwich ELISA.
Human endothelial cells (human umbilical vein endothelial cells, HUVEC) were obtained from Cellsystems (FC-0003), cultured in Vasculife VEGF complete medium (Cellsystems, LL-1020) with 2% foetal calf serum (FCS) at 37° C./5% CO2 and used for Tie2-ELISA measurements up to passage 8.
HUVEC were plated in a culture volume of 100 μl of Vasculife VEGF complete medium at a cell density of 30 000 cells per well in transparent collagen-coated 96-well cell culture plates (Falcon, #353075) and incubated in an incubation cabinet at 37° C./5% CO2 overnight. The test substances dissolved in DMSO were used to prepare in each case one dilution series in Vasculife VEGF low-serum medium [basal medium with LifeFactors (Cellsystems, LM-0002), without FCS, with 0.1% BSA] without sodium orthovanadate and one dilution series in Vasculife VEGF low-serum-medium with 8 mM sodium orthovanadate in the desired concentrations in the range from 10 pM to 10 μM, the final DMSO concentration being 1%. After removal of the complete medium, 100 μl per well of the dilute substances in low-serum medium without sodium orthovanadate were pipetted onto the cells, and the plates were incubated in an incubation cabinet at 37° C./5% CO2 for 10 min. A further 100 μl of the same substance dilution in low-serum medium with 8 mM sodium orthovanadate were then pipetted into the respective well and the cells were incubated in a volume of now 200 μl in the presence of 4 mM sodium orthovanadate at the desired substance concentration in an incubation cabinet at 37° C./5% CO2 for a further 20 min. The cell supernatant of the plates was then removed and the cells were washed once with 250 μl per well of cold PBS which contained 4 mM sodium orthovanadate. 120 μl of Duschl lysis buffer [50 mM HEPES pH 7.2, 150 mM NaCl, 1 mM MgCl2, 10% glycerol, 1.5% Triton X-100, 4 mM sodium orthovanadate, 250 μl S-PIC phosphatase inhibitor cocktail 2 (Sigma, P5726) and 1 tablet of Complete proteinase inhibitor mixture (Roche, #1836145) per 10 ml] were then added to the cells in each well. The plates were shaken briefly and then incubated on ice for 20 min, and the lysates in the cell culture plates were then frozen at −80° C. for at least 30 min.
For measuring the autophosphorylation of the endogenous Tie2 receptor in the cell lysates prepared, a self-prepared anti-Tie2 antibody directed against the N-terminus of the Tie-2 receptor (1.09 mg/ml) and an HRP-coupled anti-phosphotyrosine antibody (Sigma, A4595, clone pY-20) were used. White 96-well ELISA plates (Lumitrac600, Greiner, #655074) were incubated with 100 μl per well of a 1:1000 dilution of the anti-Tie2 antibody in coating buffer [15 mM Na2CO3, 35 mM NaHCO3, pH 9.6] with shaking at 4° C. overnight. The coated ELISA plates were washed three times with 250 μl PBST buffer [0.1% Tween-20 in PBS], the wells were blocked with 250 μl 3% BSA in PBST buffer with shaking at RT for 1-6 h and washed three more times with 250 μl PBST buffer. From the cell lysate plates thawed in the fridge, in each case 100 μl of lysate were transferred into the coated wells of the ELISA plates, and the plates were incubated with shaking at 4° C. overnight. The plates were washed three times with in each case 250 μl of PBST buffer, and 100 μl of a 1:5000 dilution of the anti-phosphotyrosine HRP antibody in 3% Prionex (Calbiochem, #529600) in PBST were then pipetted into each well and the plates were incubated with shaking and protected from light at 4° C. overnight. […]
For orientation: ELISA stands for enzyme-linked immunosorbent assay.

T1 sequence (Q02763 776-1124): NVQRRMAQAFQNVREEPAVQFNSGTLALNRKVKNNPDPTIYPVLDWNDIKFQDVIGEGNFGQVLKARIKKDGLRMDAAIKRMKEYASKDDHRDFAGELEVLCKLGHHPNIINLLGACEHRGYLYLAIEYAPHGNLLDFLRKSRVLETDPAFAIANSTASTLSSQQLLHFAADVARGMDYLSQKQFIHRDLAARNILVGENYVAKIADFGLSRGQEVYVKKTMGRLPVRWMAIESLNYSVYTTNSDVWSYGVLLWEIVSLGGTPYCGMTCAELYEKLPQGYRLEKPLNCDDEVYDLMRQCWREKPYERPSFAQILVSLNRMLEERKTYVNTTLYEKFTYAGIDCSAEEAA

The term IC50 denotes the concentration that gives 50% inhibition. Higher therefore signals a need for much substance. For the compound `Cc1ccc(NC(=O)c2cc(N3CCN(C)CC3)cc(S(F)(F)(F)(F)F)c2)cc1-n1ccn2nc(-c3cn[nH]c3)cc12` [Example 2, 3-(4-Methylpiperazin-1-yl)-N-{4-methyl-3-[6-(1H-pyrazol-4-yl)-1H-imidazo[1,2-b]pyrazol-1-yl]-phenyl}-5-(pentafluoro-λ^6-sulphanyl)benzamide], the IC50 in assay [1] is 6 nM; in assay [2], 7.6 nM.

In the case of `Cc1ccc(NC(=O)c2cc(N3CCOCC3)cc(S(F)(F)(F)(F)F)c2)cc1-n1ccn2nc(-c3cn[nH]c3)cc12` [Example 3, N-{4-Methyl-3-[6-(1H-pyrazol-4-yl)-1H-imidazo[1,2-b]pyrazol-1-yl]phenyl}-3-(morpholin-4-yl)-5-(pentafluoro-λ^6-sulphanyl)benzamide], the half-inhibitory concentration (IC50) in assay [1] was 1.2 nM; in assay [2] it was 3.4 nM.

With `Cc1ccc(NC(=O)c2cc(C(C)(C)O)cc(S(F)(F)(F)(F)F)c2)cc1-n1ccn2nc(-c3cn[nH]c3)cc12` [Example 4, 3-(2-Hydroxypropan-2-yl)-N-{4-methyl-3-[6-(1H-pyrazol-4-yl)-1H-imidazo[1,2-b]pyrazol-1-yl]-phenyl}-5-(pentafluoro-λ^6-sulphanyl)benzamide], the IC50 in assay [1] was 0.6 nM; in assay [2], 4.7 nM.

In the case of `Cc1ccc(NC(=O)c2cc(-n3ccnc3C)cc(C(F)(F)F)c2)cc1-n1ccn2nc(-c3cn[nH]c3)cc12` [Example 6, 3-(2-Methyl-1H-imidazol-1-yl)-N-{4-methyl-3-[6-(1H-pyrazol-4-yl)-1H-imidazo[1,2-b]pyrazol-1-yl]phenyl}-5-(trifluoromethyl)benzamide], the IC50 in assay [1] was 5 nM; in assay [2], 17 nM.

Take `Cc1ccc(NC(=O)c2cc(C#N)cc(S(F)(F)(F)(F)F)c2)cc1-n1cc(C)n2nc(-c3cn[nH]c3)cc12` [Example 12, 3-Cyano-N-{4-methyl-3-[3-methyl-6-(1H-pyrazol-4-yl)-1H-imidazo[1,2-b]pyrazol-1-yl]phenyl}-5-(pentafluoro-λ^6-sulphanyl)benzamide]: the values for the IC50 in assay [1] and in assay [2] were 0.7 nM and 4.7 nM, respectively.

On to `Cc1ccc(NC(=O)c2cc(-n3ccnc3C)cc(S(F)(F)(F)(F)F)c2)cc1-n1ccn2nc(-c3cccnc3)cc12` [Example 16, 3-(2-Methyl-1H-imidazol-1-yl)-N-{4-methyl-3-[6-(pyridin-3-yl)-1H-imidazo[1,2-b]pyrazol-1-yl]-phenyl}-5-(pentafluoro-λ^6-sulphanyl)benzamide], for which the IC50 worked out at 0.7 nM in assay [1] and 3.2 nM in assay [2].

Regarding `Cc1ccc(NC(=O)c2cc(N3CCN(C)CC3)cc(S(F)(F)(F)(F)F)c2)cc1-n1ccn2nc(-c3cccnc3)cc12` [Example 18, 3-(4-Methylpiperazin-1-yl)-N-{4-methyl-3-[6-(pyridin-3-yl)-1H-imidazo[1,2-b]pyrazol-1-yl]-phenyl}-5-(pentafluoro-λ^6-sulphanyl)benzamide], the IC50 in assay [1] was determined as 0.7 nM; in assay [2], 11 nM.

For the compound `Cc1ccc(NC(=O)c2cc(S(C)(=O)=O)cc(S(F)(F)(F)(F)F)c2)cc1-n1ccn2nc(-c3cccnc3)cc12` [Example 26, N-{4-Methyl-3-[6-(pyridin-3-yl)-1H-imidazo[1,2-b]pyrazol-1-yl]phenyl}-3-(methylsulphonyl)-5-(pentafluoro-λ^6-sulphanyl)benzamide], the IC50 in assay [1] turned out to be 0.8 nM; in assay [2], 3 nM.

`Cc1ccc(NC(=O)c2cc(C#N)cc(S(F)(F)(F)(F)F)c2)cc1-n1ccn2nc(-c3cccnc3)cc12` [Example 28, 3-Cyano-N-{4-methyl-3-[6-(pyridin-3-yl)-1H-imidazo[1,2-b]pyrazol-1-yl]phenyl}-5-(pentafluoro-λ^6-sulphanyl)benzamide]: the IC50 in assay [1] amounted to 2.1 nM; in assay [2], 3.6 nM.

For `Cc1ccc(NC(=O)c2cc(C(C)(C)O)cc(S(F)(F)(F)(F)F)c2)cc1-n1ccn2nc(-c3cccnc3)cc12` [Example 32, 3-(2-Hydroxypropan-2-yl)-N-{4-methyl-3 [6-(pyridin-3-yl)-1H-imidazo[1,2-b]pyrazol-1-yl]-phenyl}-5-(pentafluoro-λ^6-sulphanyl)benzamide], the IC50 in assay [1] was found to be 0.4 nM; in assay [2], 2.1 nM.

For the compound `Cc1ccc(NC(=O)c2cc(-n3ccnc3C)cc(C(F)(F)F)c2)cc1-n1ccn2nc(-c3cccnc3)cc12` [Example 40, 3-(2-Methyl-1H-imidazol-1-yl)-N-{4-methyl-3-[6-(pyridin-3-yl)-1H-imidazo[1,2-b]pyrazol-1-yl]-phenyl}-5-(trifluoromethyl)benzamide], the IC50 was found to be 0.5 nM in assay [1] and 2.3 nM in assay [2].

On to `Cc1ccc(NC(=O)c2cc(N3CCN(C)CC3)cc(C(C)(C)C)c2)cc1-n1ccn2nc(-c3cccnc3)cc12` [Example 48, 3-tert-Butyl-5-(4-methylpiperazin-1-yl)-N-{4-methyl-3-[6-(pyridin-3-yl)-1H-imidazo[1,2-b]-pyrazol-1-yl]phenyl}benzamide], for which the IC50 in assay [1] stood at 0.3 nM; in assay [2], 6.4 nM.

Take `Cc1ccc(NC(=O)c2cc(CN3CCCC3)cc(C(C)(C)C)c2)cc1-n1ccn2nc(-c3cccnc3)cc12` [Example 51, 3-tert-Butyl-N-{4-methyl-3-[6-(pyridin-3-yl)-1H-imidazo[1,2-b]pyrazol-1-yl]phenyl}-5-(pyrrolidin-1-ylmethyl)benzamide]: the results for the IC50 in assay [1] and in assay [2] were 0.7 nM and 8.8 nM, respectively.

As to `CNc1cc(C(=O)Nc2ccc(C)c(-n3ccn4nc(-c5cccnc5)cc34)c2)cc(C(C)(C)C)n1` [Example 66, 2-tert-Butyl-6-(methylamino)-N-{4-methyl-3-[6-(pyridin-3-yl)-1H-imidazo[1,2-b]pyrazol-1-yl]-phenyl}isonicotinamide], the figures for the IC50 in assay [1] and in assay [2] were 7.9 nM and 46 nM, respectively.

As to `Cc1cc(C)c(-n2ccn3nc(-c4cccnc4)cc23)cc1NC(=O)c1cccc(S(F)(F)(F)(F)F)c1` [Example 73, N-{2,4-Dimethyl-5-[6-(pyridin-3-yl)-1H-imidazo[1,2-b]pyrazol-1-yl]phenyl}-3-(pentafluoro-λ^6-sulphanyl)benzamide], the figures for the IC50 in assay [1] and in assay [2] were 0.3 nM and 0.8 nM, respectively.

On to `Cc1cc(C)c(-n2ccn3nc(-c4cccnc4)cc23)cc1NC(=O)c1cc(C#N)cc(S(F)(F)(F)(F)F)c1` [Example 74, 3-Cyano-N-{2,4-dimethyl-5-[6-(pyridin-3-yl)-1H-imidazo[1,2-b]pyrazol-1-yl]phenyl}-5-(pentafluoro-λ^6-sulphanyl)benzamide], for which the half-inhibitory concentration (IC50) in assay [1] amounted to 0.5 nM; in assay [2], 0.6 nM.

`Cc1cc(F)c(NC(=O)c2cc(C#N)cc(S(F)(F)(F)(F)F)c2)cc1-n1ccn2nc(-c3cccnc3)cc12` [Example 75, 3-Cyano-N-{2-fluoro-4-methyl-5-[6-(pyridin-3-yl)-1H-imidazo[1,2-b]pyrazol-1-yl]phenyl}-5-(pentafluoro-λ^6-sulphanyl)benzamide]: the figures for the IC50 in assay [1] and in assay [2] were 0.5 nM and 1.7 nM, respectively.

Regarding `Cc1ccc(-n2ccn3nc(-c4cccnc4)cc23)cc1NC(=O)c1cc(C#N)cc(S(F)(F)(F)(F)F)c1` [Example 77], the values for the IC50 in assay [1] and in assay [2] were 13 nM and 8.8 nM, respectively.
